Assay results as given in US20070254882A1, “Sulfamide Derivatives and Pharmaceutical Composition for Upregulation of Lipid Metabolism Comprising Same” (CRYSTAL GENOMICS, INC., priority 2004, published 2007).

What was measured:
[1] = target: T1, human PPAR α (Homo sapiens, UniProt Q07869); test: Exogeneous PPAR α agonist assay (GAL4 DNA binding domain/PPAR α ligand binding domain, luciferase) in 293T cells; assay type: cell-based; set-up: scale not given here; conditions: 25 μM compound, 48 hours, luciferase activity increase relative to the control
T1 construct: expressed in transfected cells; host or cells: HepG2 (ATCC HB-8065) or 293T cells (ATCC CRL-1573)
T1 sequence (Q07869 239-466 limits assumed): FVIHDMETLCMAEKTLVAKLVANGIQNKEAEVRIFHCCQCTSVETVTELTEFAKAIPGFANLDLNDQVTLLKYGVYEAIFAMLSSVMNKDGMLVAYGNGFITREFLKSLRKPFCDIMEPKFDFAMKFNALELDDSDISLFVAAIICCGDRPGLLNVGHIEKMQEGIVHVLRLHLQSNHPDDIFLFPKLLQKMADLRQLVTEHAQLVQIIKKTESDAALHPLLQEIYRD
Procedure, shortened: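 HepG2 or 293T cells (2×10^4/well) lipofectamine-transfected 3 hours with PPAR α, UAS firefly-luciferase and Renilla-luciferase constructs. Compounds then added at 25 μM final and incubated 48 hours at 37° C. PPAR α activation measured as dual firefly/Renilla luciferase luminescence.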

[2] = target: T1, human PPAR α; test: Exogeneous PPAR α agonist assay (GAL4 DNA binding domain/PPAR α ligand binding domain, luciferase) in HepG2 cells; assay type: cell-based; conditions: 25 μM compound, 48 hours, luciferase activity increase relative to the control
Protocol: Step 1) Exogeneous PPAR α Agonist Assay
Cross-activation assay of the compounds of Examples 1 to 134 against human PPAR α was carried out using a DNA construct of PPAR α including its ligand binding domain and GAL4 DNA binding domain (Sher et al., Biochemistry 32, 5598-5604, 1993) to analyze whether any of the compounds binds to the ligand binding domain of PPAR α expressed by the construct to affect the PPAR α activity. When the GAL4 DNA binding domainm which is fused with PPAR α ligand binding domain, binds to UAS (upstream activation sequence) of firefly-luciferase, the luciferase is expressed. Therefore, the effect of each of the compounds of Examples on PPAR α activation can be evaluated by analyzing the activation of luciferase.
Specifically, 2×10^4 of HepG2 (ATCC HB-8065) or 293T cells (ATCC CRL-1573) were aliquotted into each well of a 96-well plate and cultured for overnight at 37° C. in a CO2 incubator (culture condition: DMEM, 10% FBS and 1% antibiotics).
The transformation of PPAR α DNA was traced as follows. First, a mixture of the following ingredients in amounts per well; Solution A (Promega) containing 50 ng of full length human PPAR α DNA, 50 ng of firefly-luciferase construct, 5 ng of Renilla-luciferase construct, 1.0 μl of PLUS™ reagent, and 8.3 μl of a serum-free medium containing no antibiotics; was prepared and kept at room temperature for 15 min. Solution B, which contained 0.5 μl of Lipofectamine™ reagent and 9.5 μl of serum-free medium without antibiotics per well, and Solution C, which contained 50 μl of serum-free medium per well), were prepared. Solutions A, B and C were mixed together to prepare lipofectamin-DNA complex, and the mixture was kept at room temperature for 15 min. Single layer of cells on each well of a 96-well plate were washed with serum-free DMEM, 70 μl of lipofectamine-DNA complex prepared above was added thereto, the plate was incubated at 37° C. in a 5% CO2 incubator for 3 hours to transform the cells, and […] of a diluted solution of each of the compounds of Examples 1 to 134 per well was added to each well to a final concentration 25 μM, and incubated at 37° C. in a CO2 incubator for 48 hours. Then, the medium was removed, 50 μl of passive lysis buffer (Promega) was added thereto, and the plate was shook at room temperature for 20 min to lysis cells. 40 μl of Luciferase Assay reagent of Dual Luciferase Kit […] per 20 μl of cell lysis buffer was added to the plate, followed by reacting at 20° C. for 8 seconds, and 40 μl of Stop & Glo reagent (Promega) as a stop solution was added thereto to quench the reaction. The luminescence intensities of F-luciferase and R-luciferase were measured with MicroLumat Plus (Berthord Technology).

[3] = system: ob/ob mice; test: Anti-obesity test: lipid metabolism-related materials and glucose in blood of ob/ob mice; assay type: in vivo; conditions: 28 days; for GLU (glucose) / HDL (HDL-cholesterol) / LDL (LDL-cholesterol) / NEFA (free fatty acid) / TG (triglyceride): 100 mg/kg oral twice a day, fasted 16 hours, plasma
Protocol: (§1) In order to evaluate the anti-obesity activity of the inventive compound, B6.V-Lepob/J mice (laboratory animal team of Korea Research Institute of Chemical Technology) were used for tests and lean mice as a control. Ob/ob mice are model animals for insulin-independent diabetes, suitable for studying the effect of an anti-obesity drug.
(§2) 42 mice weighing 38.6±1.4 g were selected randomly from a pool of ob/ob mice (7-9 weeks old), and divided into groups of 7 mice each. The test was carried out at a constant temperature (24±0.5° C.) and humidity (55±5%) using ventilation system (10-12 times/hour), under a specific pathogen free (SPF) condition created in an automatic on-off cycle of 12 hours.
(§3) The groups were divided to a control group treated only with an excipient, a positive control group treated with fenofibrate, and test groups treated with each of the compounds of Examples 5, 62 and 65, at dosage 100 mg/10 ml/kg body weight. Each of the test and control compounds was diluted with 0.5% CMC to a concentration to match the above dosage, and administered orally using a syringe into the stomach twice a day (9:00 and 18:00) for a period of 4 weeks, and the following characteristics were measured.
3) Measurement of Lipid Metabolism-Related Materials and Insulin Concentration in Blood
28 days after the administration, experimental mice were fasted for 16 hours, and the concentrations of lipid metabolism-related materials such as triglyceride, free fatty acid and cholesterol, and insulin in blood were measured. Specifically, a blood sample was collected from the ocular venous plexus of each mouse and centrifuged to separate plasma. The glucose (GLU), HDL-cholesterol (HDL), LDL-cholesterol (LDL), triglyceride (TG) and free fatty acid (NEFA) levels were measured by enzymatic assay using 2 kinds of Selectra (Vital Lab), an automatic biochemical analyzer, and the insulin concentration was measured by ELISA using an insulin detection kit (Shibayagi).

[4] = system: ob/ob mice; test: Oral glucose tolerance test (OGTT) in ob/ob mice; assay type: in vivo
Protocol: as §1, §2, §3
4) Oral Glucose Tolerance Test (OGTT)
28 days after the administration, each of the experimental mice was fasted for 16 hours, 2 g/kg of glucose was administered thereto, a blood sample was collected from the ocular venous plexus thereof at 0, 15, 30, 60 and 120 min from the administration, and the glucose concentration and AUC (area under the curve, Skrumsager et al., J Clin Pharmacol. 43, 1244-1256, 2003) were determined.

[5] = system: ob/ob mice; test: Anti-obesity test: feed intake in ob/ob mice; assay type: in vivo; conditions: 100 mg/kg oral twice a day, first week of the test, P<0.005, FIG. 1a
Protocol: as §1, §2, §3
1) General Symptoms and Observation of Dead Animal
The conditions, behavioral changes, addictive symptoms and the death rate were observed constantly during the test period.

Activity at 25 μM Step 1 293T cell [1]	Activity at 25 μM Step 1 HepG2 cell [2]	Structure (SMILES)	also measured
5	25	CCN(c1cccc(C)c1)S(=O)(=O)N(CC(=O)O)Cc1ccc(OCCc2nc(-c3ccc(C)cc3)oc2C)cc1 [Example 111, [N—(N-ethyl-N-m-tolylamino)sulfonyl-N-[4-[2-[2-(4-methylphenyl)-5-methyloxazol-4-yl]ethoxy]benzyl]amino]acetic acid]	–
1	–	Cc1oc(-c2ccc(C(F)(F)F)cc2)nc1CCOc1cccc(CN(CC(=O)O)S(=O)(=O)N(C)C)c1 [Example 65, [N—(N,N-dimethylamino)sulfonyl-N-[3-[2-[2-(4-trifluoromethylphenyl)-5-methyloxazol-4-yl]ethoxy]benzyl]amino]acetic acid]	GLU (glucose) [3]: 158.8 ± 44.0 mg/dL; HDL (HDL-cholesterol) [3]: 321.4 ± 31.8 mg/dL; LDL (LDL-cholesterol) [3]: 33.0 ± 9.3 mg/dL; NEFA (free fatty acid) [3]: 1,006 ± 203 UEq/l; TG (triglyceride) [3]: 45.9 ± 4.7 mg/dL; GLU concentration compared to the control or positive control group [3]: much lower; HDL concentration [3]: high; total changes in the glucose concentration represented by AUC compared to the control group ([4]; 2 g/kg glucose, 0-120 min, P<0.05, P<0.005 and P<0.01, FIG. 3b): much lower; glucose concentration at 30 and 60 min after the glucose administration compared to the control group ([4]; 2 g/kg glucose, P<0.01, P<0.05, FIG. 3a): significantly low; glucose concentration during the fast compared to the control group ([4]; ob/ob mice, 28 days, fasted 16 hours, P<0.05, FIG. 3c): significantly low; daily feed intake compared to the control group [5]: significantly reduced
–	–	CC(C)OC(=O)C(C)(C)Oc1ccc(C(=O)c2ccc(Cl)cc2)cc1 [fenofibrate, reference compound]	GLU (glucose) [3]: 223.1 ± 77.2 mg/dL; HDL (HDL-cholesterol) [3]: 280.5 ± 28.5 mg/dL; LDL (LDL-cholesterol) [3]: 27.0 ± 4.7 mg/dL; NEFA (free fatty acid) [3]: 1,003 ± 80 UEq/l; TG (triglyceride) [3]: 49.4 ± 6.1 mg/dL
4	31	Cc1oc(-c2ccc(C(F)(F)F)cc2)nc1COc1cccc(CN(CC(=O)O)S(=O)(=O)N(C)C(C)C)c1 [Example 8, [N—(N-isopropyl-N-methylamino)sulfonyl-N-[3-[[2-(4-trifluoromethylphenyl)-5-methyloxazol-4-yl]methoxy]benzyl]amino]acetic acid]	–
4	34	CN(c1ccc(Cl)cc1)S(=O)(=O)N(CC(=O)O)Cc1ccc(OCCc2coc(-c3ccccc3)n2)cc1 [Example 133, [N—[[N-(4-chlorophenyl)-N-methyl]amino]sulfonyl-N-[4-[(2-phenyloxazol-4-yl)ethoxy]benzyl]amino]acetic acid]	–
2	30	Cc1ccc(-c2nc(CCOc3cccc(CN(CC(=O)O)S(=O)(=O)N(C)C(C)C)c3)c(C)o2)cc1 [Example 64, [N—(N-isopropyl-N-methylamino)sulfonyl-N-[3-[2-[2-(4-methylphenyl)-5-methyloxazol-4-yl]ethoxy]benzyl]amino]acetic acid]	–
4	44	Cc1oc(-c2ccc(C(F)(F)F)cc2)nc1COc1cccc(CN(CC(=O)O)S(=O)(=O)N2CCCCC2)c1 [Example 11, [N-(piperidinyl)sulfonyl-N-[3-[[2-(4-trifluoromethylphenyl)-5-methyloxazol-4-yl]methoxy]benzyl]amino]acetic acid]	–
3	34	C#CCN(C)S(=O)(=O)N(CC(=O)O)Cc1cccc(OCCc2nc(-c3ccc(C(F)(F)F)cc3)oc2C)c1 [Example 70, [N—(N-methyl-N-propargylamino)sulfonyl-N-[3-[2-[2-(4-trifluoromethylphenyl)-5-methyloxazol-4-yl]ethoxy]benzyl]amino]acetic acid]	–
5	40	Cc1ccc(-c2nc(COc3cccc(CN([C@@H](C)C(=O)O)S(=O)(=O)N(C)C)c3)c(C)o2)cc1 [Example 124, (S)-2-[N—(N,N-dimethylamino)sulfonyl-N-[3-[(5-methyl-2-p-tolyloxazol-4-yl)methoxy]benzyl]amino]propionic acid]	–
4	46	Cc1ccc(-c2nc(CCOc3ccc(CN(CC(=O)O)S(=O)(=O)N(C)C(C)C)cc3)c(C)o2)cc1 [Example 102, [N—(N-isopropyl-N-methylamino)sulfonyl-N-[4-[2-[2-(4-methylphenyl)-5-methyloxazol-4-yl]ethoxy]benzyl]amino]acetic acid]	–
